Data reported in patent EP0067666A1, “Salts of antimicrobial naphthyridine and quinoline compounds and their production” (priority 1981, dated 1982).
In brackets after ≈: the same amount, converted by molar mass. Where two headings read alike, the source gives them in different places.

Key:
[1] = tested on: Entero cloacae MA 2646; test: Antibacterial activity, MIC; format: cell-based
[2] = tested on: E. coli Vogel; test: Antibacterial activity, MIC; format: cell-based
[3] = tested on: Klebs. pneumoniae MGH-2; test: Antibacterial activity, MIC; format: cell-based
[4] = tested on: Proteus retgeri M 1771; test: Antibacterial activity, MIC; format: cell-based
[5] = tested on: Pseudo. aeruginosa UI-18; test: Antibacterial activity, MIC; format: cell-based
[6] = tested on: Staph. aureus H 228; test: Antibacterial activity, MIC; format: cell-based
[7] = tested on: Staph. aureus UC-76; test: Antibacterial activity, MIC; format: cell-based
[8] = tested on: Strep. faecalis MGH-2; test: Antibacterial activity, MIC; format: cell-based
[9] = tested on: Strep. pneumoniae SV-1; test: Antibacterial activity, MIC; format: cell-based
[10] = tested on: Strep. pyogenes C-203; test: Antibacterial activity, MIC; format: cell-based
[11] = tested on: Klebsiella pneumoniae MGH-2; test: Acute mouse protection test; format: in vivo; details: single dose given at time of challenge; for ED50: Klebsiella pneumoniae, compound A series; for Single sc Dose PD50 (mg/kg) ± 95% Confidence Limits Klebsiella pneumoniae MGH-2: compound B series
[12] = tested on: Escherichia coli Vogel; test: Acute mouse protection test; format: in vivo; details: single dose given at time of challenge; for ED50: Escherichia coli, compound A series; for Single po Dose PD50 (mg/kg) ± 95% Confidence Limits Escherichia coli Vogel / Single sc Dose PD50 (mg/kg) ± 95% Confidence Limits Escherichia coli Vogel: compound B series
[13] = tested on: Staphylococcus aureus UC-76; test: Acute mouse protection test; format: in vivo; details: single dose given at time of challenge, compound B series
[14] = Two-way crossover oral trial, drug blood levels by disk agar diffusion microbiological assay; format: in vivo; details: Beagle dogs, single 25 mg/kg (parent compound equivalent) oral dose in hard gelatine capsules; compound B compared with compound D as the glutamate
Description: Drug blood levels were determined by a disk agar diffusion microbiological assay.

Which “MIC µg/ml Entero cloacae MA 2646” value ([1]; based on content of compound A) does the source give for CCn1cc(C(=O)O)c(=O)c2cc(F)c(N3CCNCC3)cc21 [A Galacturo-nate] here?
The value was 0.1 µg/mL (≈ 0.313 µM).

What about the “MIC µg/ml E. coli Vogel” value ([2]; based on content of compound A) of the same molecule?
The value was under 0.1 µg/mL.

And the “MIC µg/ml Klebs. pneumoniae MGH-2” value ([3]; based on content of compound A)?
The value was 0.1 µg/mL (≈ 0.313 µM).

And the “MIC µg/ml Proteus retgeri M 1771” value ([4]; based on content of compound A)?
The value was under 0.1 µg/mL.

What about the “MIC µg/ml Pseudo. aeruginosa UI-18” value ([5]; based on content of compound A) of the same molecule?
The value was 0.1 µg/mL (≈ 0.313 µM).

What about the “MIC µg/ml Staph. aureus H 228” value ([6]; based on content of compound A) of the same molecule?
The value was 0.8 µg/mL (≈ 2.51 µM).

What about the “MIC µg/ml Staph. aureus UC-76” value ([7]; based on content of compound A) of the same molecule?
Its value is under 0.1 µg/mL.

What about the “MIC µg/ml Strep. faecalis MGH-2” value ([8]; based on content of compound A) of the same molecule?
Its value is 1.6 µg/mL (≈ 5.01 µM).

What about the “MIC µg/ml Strep. pneumoniae SV-1” value ([9]; based on content of compound A) of the same molecule?
The value was 1.6 µg/mL (≈ 5.01 µM).

And the “MIC µg/ml Strep. pyogenes C-203” value ([10]; based on content of compound A)?
Its value is 0.8 µg/mL (≈ 2.51 µM).

With CCn1cc(C(=O)O)c(=O)c2cc(F)c(N3CCNCC3)cc21 [Compound A, 1-ethyl-6-fluoro-1,4-dihydro-4-oxo-7-(1-piperazinyl)-3-quinolinecarboxylic acid, reference compound] as the molecule, how does the MIC ([1]; based on content of compound A) read?
The MIC was under 0.1 µg/mL.

What about the MIC ([2]; Escherichia coli, based on content of compound A) of the same molecule?
The MIC was 0.1 µg/mL (≈ 0.313 µM).

And the MIC ([3]; Klebsiella pneumoniae, MGH2, based on content of compound A)?
The MIC was 0.2 µg/mL (≈ 0.626 µM).

What about the MIC ([4]; based on content of compound A) of the same molecule?
Its MIC is under 0.1 µg/mL.

And the “MIC µg/ml Pseudo. aeruginosa UI-18” value ([5]; based on content of compound A)?
The value was 0.4 µg/mL (≈ 1.25 µM).

What about the MIC ([6]; Staphylococcus aureus, H228, based on content of compound A) of the same molecule?
Its MIC is 1.6 µg/mL (≈ 5.01 µM).

What about the MIC ([7]; Staphylococcus aureus, UC76, based on content of compound A) of the same molecule?
The MIC was 0.1 µg/mL (≈ 0.313 µM).

What about the MIC ([8]; Enterococcus faecalis, MGH2, based on content of compound A) of the same molecule?
Its MIC is 1.6 µg/mL (≈ 5.01 µM).

And the MIC ([9]; Streptococcus pneumoniae, SV1, based on content of compound A)?
The MIC was 0.8 µg/mL (≈ 2.51 µM).

And the MIC ([10]; Streptococcus pyogenes, C203, based on content of compound A)?
The MIC was 0.8 µg/mL (≈ 2.51 µM).

What about the ED50 ([11]; MGH2, po, oral, read-out: Single po Dose PD50 (mg/kg) ± 95% Confidence Limits Klebsiella pneumoniae MGH-2) of the same molecule?
Its ED50 is 15 ± 3 mg/kg.

And the ED50 ([11]; MGH2, sc, subcutaneous, read-out: Single sc Dose PD50 (mg/kg) ± 95% Confidence Limits Klebsiella pneumoniae MGH-2)?
The ED50 was 1.3 ± 0.3 mg/kg.

What about the ED50 ([12]; po, read-out: Single po Dose PD50 (mg/kg) ± 95% Confidence Limits Escherichia coli Vogel) of the same molecule?
Its ED50 is 3.3 ± 0.5 mg/kg.

What about the ED50 ([12]; sc, subcutaneous, read-out: Single sc Dose PD50 (mg/kg) ± 95% Confidence Limits Escherichia coli Vogel) of the same molecule?
The ED50 was 0.5 ± 0.1 mg/kg.

Which results are given for CCn1cc(C(=O)O)c(=O)c2cc(F)c(N3CCNCC3)nc21 [B Aspartate]?
MIC µg/ml Entero cloacae MA 2646 ([1]; based on content of compound B): 0.2 µg/mL (≈ 0.624 µM); MIC µg/ml E. coli Vogel ([2]; based on content of compound B): <0.1 µg/mL; MIC µg/ml Klebs. pneumoniae MGH-2 ([3]; based on content of compound B): 0.1 µg/mL (≈ 0.312 µM); MIC µg/ml Proteus retgeri M 1771 ([4]; based on content of compound B): <0.1 µg/mL; MIC µg/ml Pseudo. aeruginosa UI-18 ([5]; based on content of compound B): 0.4 µg/mL (≈ 1.25 µM); MIC µg/ml Staph. aureus H 228 ([6]; based on content of compound B): 3.1 µg/mL (≈ 9.68 µM); MIC µg/ml Staph. aureus UC-76 ([7]; based on content of compound B): 0.1 µg/mL (≈ 0.312 µM); MIC µg/ml Strep. faecalis MGH-2 ([8]; based on content of compound B): 3.1 µg/mL (≈ 9.68 µM); MIC µg/ml Strep. pneumoniae SV-1 ([9]; based on content of compound B): 3.1 µg/mL (≈ 9.68 µM); MIC µg/ml Strep. pyogenes C-203 ([10]; based on content of compound B): 6.3 µg/mL (≈ 19.7 µM); Single sc Dose PD50 (mg/kg) ± 95% Confidence Limits Klebsiella pneumoniae MGH-2 ([11]; subcutaneous): 1.6 ± 0.6 mg/kg; Single po Dose PD50 (mg/kg) ± 95% Confidence Limits Escherichia coli Vogel [12]: 2.9 ± 1.0 mg/kg; Single sc Dose PD50 (mg/kg) ± 95% Confidence Limits Escherichia coli Vogel ([12]; subcutaneous): 1.3 ± 0.4 mg/kg; Single po Dose PD50 (mg/kg) ± 95% Confidence Limits Staphylococcus aureus UC-76 ([13]; oral): 13 ± 3.0 mg/kg; Single sc Dose PD50 (mg/kg) ± 95% Confidence Limits Staphylococcus aureus UC-76 ([13]; subcutaneous): 4.3 ± 1.4 mg/kg

For CCn1cc(C(=O)O)c(=O)c2cc(F)c(N3CCNCC3)nc21 [Compound B L-Glutamic, 1-Ethyl-6-fluoro-1,4-dihydro-4-oxo-7-(1-piperazinyl)-1,8-naphthyridine-3-carboxylic acid L-glutamate], which drug half-life [14] is on record?
Its drug half-life is “no significant difference”.

And the peak blood level [14]?
The peak blood level was “no significant difference”.

Which results are given for CCn1cc(C(=O)O)c(=O)c2cc(F)c(N3CCNCC3)nc21 [B Gluconate]?
MIC µg/ml Entero cloacae MA 2646 ([1]; based on content of compound B): 0.4 µg/mL; MIC µg/ml E. coli Vogel ([2]; based on content of compound B): 0.1 µg/mL; MIC µg/ml Klebs. pneumoniae MGH-2 ([3]; based on content of compound B): 0.2 µg/mL; MIC µg/ml Proteus retgeri M 1771 ([4]; based on content of compound B): 0.2 µg/mL; MIC µg/ml Pseudo. aeruginosa UI-18 ([5]; based on content of compound B): 0.8 µg/mL; MIC µg/ml Staph. aureus H 228 ([6]; based on content of compound B): 1.6 µg/mL; MIC µg/ml Staph. aureus UC-76 ([7]; based on content of compound B): 0.4 µg/mL; MIC µg/ml Strep. faecalis MGH-2 ([8]; based on content of compound B): 3.1 µg/mL; MIC µg/ml Strep. pneumoniae SV-1 ([9]; based on content of compound B): 3.1 µg/mL; MIC µg/ml Strep. pyogenes C-203 ([10]; based on content of compound B): 3.1 µg/mL; Single sc Dose PD50 (mg/kg) ± 95% Confidence Limits Klebsiella pneumoniae MGH-2 ([11]; subcutaneous): 5.2 ± 1.5 mg/kg; Single po Dose PD50 (mg/kg) ± 95% Confidence Limits Escherichia coli Vogel [12]: 2.9 ± 0.7 mg/kg; Single sc Dose PD50 (mg/kg) ± 95% Confidence Limits Escherichia coli Vogel ([12]; subcutaneous): 1.1 ± 0.4 mg/kg
